In paper PMC10641814 (Journal of Medicinal Chemistry, 2023):

Assays:
h5-HT6R = biological target: T1, h5-HT6R (Homo sapiens, UniProt P50406); assay: 5-HT6R radioligand binding ([3H]-LSD) in HEK293 cells stably expressing h5-HT6R; conditions: 2 nM [3H]-LSD, mean of three independent experiments, read-out: Ki ± SEM [nM] 5-HT6R
T1 construct: expressed in transfected cells

hMAO-B [1] = biological target: T2, hMAO-B (Homo sapiens, UniProt P27338); assay: MAO-B inhibition, fluorometric method, p-tyramine substrate; type: biochemical; conditions: two experiments in duplicate
T2 construct: purchased Sigma-Aldrich M7441
T2 sequence (P27338 1-520): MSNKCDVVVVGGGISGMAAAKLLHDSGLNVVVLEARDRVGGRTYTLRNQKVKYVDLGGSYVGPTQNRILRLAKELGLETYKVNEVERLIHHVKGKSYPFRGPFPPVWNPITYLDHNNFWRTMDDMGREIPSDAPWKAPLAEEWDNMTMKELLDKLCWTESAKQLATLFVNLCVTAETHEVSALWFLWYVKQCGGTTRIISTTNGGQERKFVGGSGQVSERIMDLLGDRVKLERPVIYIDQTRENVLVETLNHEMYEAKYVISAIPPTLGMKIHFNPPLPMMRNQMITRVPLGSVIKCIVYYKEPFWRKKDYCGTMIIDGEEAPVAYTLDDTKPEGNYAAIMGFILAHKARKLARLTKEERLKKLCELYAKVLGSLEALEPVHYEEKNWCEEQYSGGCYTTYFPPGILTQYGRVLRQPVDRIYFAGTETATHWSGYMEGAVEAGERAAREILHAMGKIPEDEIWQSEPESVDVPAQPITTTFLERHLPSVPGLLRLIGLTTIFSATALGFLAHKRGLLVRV

[2] = tested on: oAβ25–35-induced memory deficits in rats; assay: oAβ25–35-induced memory deficits in T-maze test in rats; type: in vivo, rat
Protocol: For the AD model, adult male Sprague–Dawley rats (Janvier Lab., France) weighing 260–280 g (8 weeks) at the beginning of the experiments were housed 1 week before experiments in a standard animal facility of the University of Montpellier (CECEMA, registration number E34-172-23) (12/12 h light/dark cycle with lights on at 07:00; 21 ± 1 °C, food and water ad libitum). All experiments, including sacrifices, were performed in conscious rats between 09:00 and 12:00, during the diurnal period of the circadian rhythm. Male has been preferred over female because the latter may present a confounding factor of the estrous cycle, a parameter that needs to be systematically controlled. Animal procedures were conducted in strict adherence to the European Union Directive of 2010 (2010/63/EU). The National French Animal Welfare Committee and the local committee at the University of Montpellier approved all protocols (authorization: CEEA-LR-12160). All efforts were made to minimize the number of animals used, potential pain, suffering, and distress.
As previously detailed,[37],[64] to induce the acute model of AD (oAβ25–35 model), rats were divided into three groups. One group had no surgery (Naive group), a second set of animals received an intracerebroventricular (icv) injection of incubated scrambled peptide (negative control groups—10 μg/rat—Sc), and a third set received an icv injection of oAβ25–35 (AD groups—10 μg/rat—Aβ). The animals were anesthetized with an intraperitoneal (ip) injection of a mixture of ketamine and xylazine (80 and 10 mg/kg b.w., respectively). Scrambled peptide and oAβ25–35 were injected directly into the lateral ventricles at a rate of 2 μL/min using a David-Kopf stereotaxic apparatus (coordinates of injection: AP −1 mm, L ±1.5 mm, DV −3.5 mm).
1—A curative approach: This treatment was started 1 week after the induction of amyloid toxicity (icv injection of oAβ25–35) and consisted of 2 ip injections (1.5 mg/kg per injection) per day for 1 week. On day 14, animals were subjected to a behavioral memory test (T-maze) and sacrificed on day 15 by decapitation.
(§1) 2—A preventive approach: This treatment was started at the same time as the induction of amyloid toxicity and consisted of implanting ip, and during the same anesthetic procedure necessary for the icv injection of oAβ25–35, an osmotic pump (Alzet-EML2, Charles-River, France) which continuously delivered the molecules for 1 week at the dose of 3 mg/kg/day. On day 7, animals were submitted to a behavioral memory test (T-maze) and sacrificed on day 8 by decapitation.
As previously reported, the T-maze test was used to rapidly assess cognitive ability in rats, especially the short-term memory deficits, when performed in two successive sessions.[37],[38],[64],[65] The T-maze consisted of two short arms (A and B), extending from a longer alley (C) and enclosed with high walls. The test involved two trials, separated by 1 h. During the training session, one short arm (B) was closed. Rats were placed at the end of the long alley, allowed to visit the maze for 10 min, and then returned to their home cage. […] The number of visits and time spent in each arm were measured. The results were expressed as the ratio of the time spent in the initially closed novel arm, over the time spent in the previous arm, and as a ratio of the number of entries into the novel arm over the familiar one. […]

[3] = tested on: hippocampus of rats injected with oAβ25–35; assay: Western blot of hippocampal AD biomarkers in oAβ25–35-injected rats; type: in vivo, rat; conditions: oAβ25–35 icv
Protocol: As previously detailed,[37],[64] to induce the acute model of AD (oAβ25–35 model), rats were divided into three groups. […] The animals were anesthetized with an intraperitoneal (ip) injection of a mixture of ketamine and xylazine (80 and 10 mg/kg b.w., respectively). Scrambled peptide and oAβ25–35 were injected directly into the lateral ventricles at a rate of 2 μL/min using a David-Kopf stereotaxic apparatus (coordinates of injection: AP −1 mm, L ±1.5 mm, DV −3.5 mm).
On day 14, animals were subjected to a behavioral memory test (T-maze) and sacrificed on day 15 by decapitation.
as §1
At the time of sacrifice, all hippocampi were dissected out, weighed, and rapidly frozen in liquid nitrogen for Western blot (WB) analysis.
Western blot analyses were performed on the whole hippocampus as previously described.[37] All antibodies used are detailed in Table S3. Briefly, after sacrifice, hippocampi were microdissected, weighed, immediately frozen in liquid nitrogen, and stored at −20 °C. Tissues were sonicated (VibraCell; Sonics & Materials, USA) in a lysis buffer[37] and centrifuged (4 °C). Supernatants were collected, and the protein concentration was measured using a bicinchoninic Acid (BCA) assay (ThermoFisher Scientific, France). […] The membranes were incubated overnight (4 °C) with the primary antibody, washed, and then incubated for 2 h with the appropriate horseradish peroxidase-conjugated secondary antibody. […] The intensity of the immunoreactive signals was quantified using Image-J software (NIH, Bethesda, […], USA). β-Tubulin (β-Tub) was used as a loading control for all experiments.

hMAO-B [4] = biological target: T2, hMAO-B; assay: MAO-B reversibility study; type: biochemical; conditions: at concentrations corresponding to IC80, p-tyramine raised to 1 mM
[5] = 1.5 mg/kg ip twice a day for 7 days

T1 sequence (P50406 whole entry): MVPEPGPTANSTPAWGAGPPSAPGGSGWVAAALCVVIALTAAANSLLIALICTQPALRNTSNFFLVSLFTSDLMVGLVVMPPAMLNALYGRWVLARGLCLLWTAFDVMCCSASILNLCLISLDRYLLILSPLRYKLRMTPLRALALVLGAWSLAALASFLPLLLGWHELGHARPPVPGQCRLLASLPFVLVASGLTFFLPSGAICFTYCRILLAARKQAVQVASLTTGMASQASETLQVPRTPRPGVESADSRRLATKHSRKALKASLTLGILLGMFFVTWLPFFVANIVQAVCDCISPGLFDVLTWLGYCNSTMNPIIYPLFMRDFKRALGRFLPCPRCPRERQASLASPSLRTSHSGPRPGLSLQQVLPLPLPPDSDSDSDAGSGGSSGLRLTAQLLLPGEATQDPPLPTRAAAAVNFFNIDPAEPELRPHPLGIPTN

Row | Ki (h5-HT6R) | pIC50 ± SEM (MAO-B) (hMAO-B [1]) | SMILES | further results
1 | 21 ± 3 nM | 6.57 ± 0.03 | Cl.c1ccc(Cn2ccc3c(N[C@H]4CCNC4)nc4ccccc4c32)cc1 [Compound 3] | –
2 | 21 ± 2 nM | 6.16 ± 0.05 | Cl.Fc1cccc(Cn2ccc3c(N[C@H]4CCNC4)nc4ccccc4c32)c1 [Compound 4] | –
3 | 214 ± 26 nM | 5.70 ± 0.04 | Cl.Clc1cccc(Cn2ccc3c(NC[C@H]4CCCN4)nc4ccccc4c32)c1 [Compound 9] | –
4 | 140 ± 18 nM | 8.02 ± 0.12 | Cl.Clc1cccc(Cn2ccc3c(NC[C@H]4CCNC4)nc4ccccc4c32)c1 [Compound 11] | –
5 | 122 ± 10 nM | 6.52 ± 0.04 | Cl.Clc1cccc(Cn2ccc3c(NC[C@@H]4CCNC4)nc4ccccc4c32)c1 [Compound 12] | –
6 | 1340 ± 156 nM | 7.43 ± 0.04 | CN(C)C1CCN(c2nc3ccccc3c3c2ccn3Cc2cccc(Cl)c2)C1.Cl (stereo not drawn) [Compound 13] | –
7 | 138 ± 15 nM | 7.69 ± 0.12 | Cl.Clc1cccc(Cn2ccc3c(N4CCCNCC4)nc4ccccc4c32)c1 [Compound 17] | –
8 | 1270 ± 173 nM | 5.60 ± 0.02 | CN(C)C1CCN(c2nc3ccccc3c3c2ccn3Cc2cccc(Cl)c2)CC1.Cl [Compound 19] | –
9 | 541 ± 80 nM | 6.13 ± 0.06 | Cl.Clc1cccc(Cn2ccc3c(C4CCNCC4)nc4ccccc4c32)c1 [Compound 23, 1-(3-Chlorobenzyl)-4-(piperidin-4-yl)-1H-pyrrolo[3,2-c]quinoline Hydrochloride] | –
10 | 5450 ± 793 nM | 5.18 ± 0.04 | Cl.Clc1cccc(CNc2ccnc(N3CCNCC3)c2)c1 [Compound 26] | –

Continued, molecule first:

Row | SMILES | Ki (h5-HT6R) | pIC50 ± SEM (MAO-B) (hMAO-B [1]) | further results
11 | Cl.Clc1cccc(Cn2ccc3c(N[C@H]4CCNC4)nc4ccccc4c32)c1 [Compound 5, (S)-1-(3-Chlorobenzyl)-N-(pyrrolidin-3-yl)-1H-pyrrolo[3,2-c]quinolin-4-amine Hydrochloride] | 7 ± 1 nM | 6.92 ± 0.04 | –
12 | Cl.Clc1cccc(Cn2ccc3c(N[C@@H]4CCNC4)nc4ccccc4c32)c1 [Compound 6] | 30 ± 4 nM | 6.83 ± 0.01 | –
13 | Brc1cccc(Cn2ccc3c(N[C@H]4CCNC4)nc4ccccc4c32)c1.Cl [Compound 7] | 10 ± 1 nM | 6.89 ± 0.12 | –
14 | COc1cccc(Cn2ccc3c(N[C@H]4CCNC4)nc4ccccc4c32)c1.Cl [Compound 8] | 25 ± 3 nM | 6.86 ± 0.07 | –
15 | Cl.Clc1cccc(Cn2ccc3c(NC[C@@H]4CCCN4)nc4ccccc4c32)c1 [Compound 10, (S)-1-(3-Chlorobenzyl)-N-(pyrrolidin-2-ylmethyl)-1H-pyrrolo[3,2-c]quinolin-4-amine Hydrochloride] | 226 ± 30 nM | 6.52 ± 0.04 | –
16 | Cl.NC[C@@H]1CCN(c2nc3ccccc3c3c2ccn3Cc2cccc(Cl)c2)C1 [Compound 14] | 1520 ± 220 nM | 8.00 ± 0.00 | –
17 | CNC1CN(c2nc3ccccc3c3c2ccn3Cc2cccc(Cl)c2)C1.Cl [Compound 15] | 723 ± 87 nM | 8.22 ± 0.14 | –
18 | Cl.Clc1cccc(Cn2ccc3c(N4C[C@H]5C[C@@H]4CN5)nc4ccccc4c32)c1 [Compound 18] | 372 ± 48 nM | 6.73 ± 0.02 | –
19 | Cl.Clc1cccc(Cn2ccc3c(N4CC5(CCNC5)C4)nc4ccccc4c32)c1 [Compound 20, 1-(3-Chlorobenzyl)-4-(2,6-diazaspiro[3.4]octan-2-yl)-1H-pyrrolo[3,2-c]quinoline Hydrochloride] | 677 ± 82 nM | 7.01 ± 0.11 | –
20 | Cl.Clc1cccc(Cn2ccc3c(N4CC5(CNC5)C4)nc4ccccc4c32)c1 [Compound 21] | 920 ± 127 nM | 6.97 ± 0.05 | –
21 | Cl.Clc1cccc(Cn2ccc3c(C4=CCNCC4)nc4ccccc4c32)c1 [Compound 22] | 34 ± 4 nM | 6.67 ± 0.04 | –
22 | Cl.Clc1cccc(Cn2ccc3c(CN4CCNCC4)nc4ccccc4c32)c1 [Compound 24] | 119 ± 14 nM | 5.21 ± 0.02 | –
23 | Cl.Clc1cccc(CNc2cc(N3CCNCC3)nc3ccccc23)c1 [Compound 25] | 152 ± 18 nM | 5.36 ± 0.03 | –
24 | O=S(=O)(c1ccccc1)c1cnc2c(N3CCNCC3)cccc2c1 [Intepirdine, reference compound] | – | – | effect on oAβ25–35-induced memory deficits in T-maze, curative treatment ([2]; 1.5 mg/kg ip twice a day for 7 days, started 1 week after icv oAβ25–35): only partially reversed the memory deficits; effect on oAβ25–35-induced memory deficits in T-maze, preventive treatment ([2]; 3 mg/kg/day by ip osmotic pump for 1 week, concomitant with icv oAβ25–35): did not exhibit the same preventive effect; hippocampal Caspase-3 and Pro-caspase-3 expression, curative strategy [3, 5]: decreased expression of Caspase-3 and Pro-caspase-3; hippocampal PSD-95 and SYN levels, curative treatment [3, 5]: reversed only the SYN level; hippocampal Caspase-3 and Pro-caspase-3 expression, preventive treatment ([3]; 3 mg/kg/day osmotic pump 1 week): prevented increased expression of Caspase-3 and Pro-caspase-3; hippocampal GFAP increase ([3]; curative and preventive approach): Neither PZ-1922 nor intepirdine impacted the GFAP increase
25 | C#CCN[C@@H]1CCc2ccccc21 [Rasagiline] | – | – | reversibility of MAO-B inhibition (recovery of MAO-B activity) (hMAO-B [4]): irreversible inhibitor
26 | C[C@H](NCc1ccc(OCc2cccc(F)c2)cc1)C(N)=O [Safinamide] | – | – | reversibility of MAO-B inhibition (recovery of MAO-B activity) (hMAO-B [4]): reversible MAO-B inhibitors
